The record followed here is patent publication US10196404B2, “MCL-1 inhibitors and methods of use thereof” (AstraZeneca AB, priority 2016, dated 2019).

For test [1], the system named is MOLP-8 (multiple myeloma) cells. The experiment in a line: Caspase Activity Assay (Caspase-Glo 3/7, 6 h treatment), MOLP-8. The test is classed as cell-based, human. Particulars: MOLP-8 cells, geometric mean of multiple measurements. The protocol:
(§1) This is a cell assay to measure the induction of apoptosis in MOLP-8 (multiple myeloma), KMS-12-BM (multiple myeloma), MV-4-11 (acute myeloid leukemia), and NCl-H23 (non-small cell lung cancer) cells after 6 h treatment. On the first day, 3000 (MOLP-8, KMS-12-BM, MV-4-11) or 1250 (NCl-H23) cells/well were seeded in 50 μL of growth media (IMDM+10% FBS+2 mM L-Glu for MV-4-11 and RPM1-1640+10% FBS+2 mM L-Glu for all other cell lines) in 384-well white microplates, and incubated overnight (37° C., 5% CO2, 80% RH). On the second day, the cells were treated with Mcl-1 inhibitors using an ECHO acoustic liquid handler (10 point half-log serial dilution, 31.5 μM top concentration, 0.3% final DMSO concentration). After 6 h incubation (37° C., 5% CO2, 80% RH), 25 μL of Caspase-Glo 3/7 reagent (Promega) was added into each well, and plates were incubated at room temperature for 30 min protected from light. Luminescence was recorded using an Infinite M200 microplate reader (Tecan) with a 100 ms integration time. EC50 values were calculated using GeneData analysis software.

For test [2], the system named is KMS-12-BM (multiple myeloma) cells. Nature of the test: Caspase Activity Assay (Caspase-Glo 3/7, 6 h treatment), KMS-12-BM. It is filed as cell-based. Particulars: KMS-12-BM cells, geometric mean of multiple measurements. The protocol: as §1
Test [3] deals with MV-4-11 (acute myeloid leukemia) cells. Nature of the test: Caspase Activity Assay (Caspase-Glo 3/7, 6 h treatment), MV-4-11. The test is classed as cell-based, human. The note with it: MV-4-11 cells, geometric mean of multiple measurements. The protocol:
as §1

For the next test, the system named is MOLP-8 tumor. Nature of the test: In vivo efficacy in MOLP-8 human multiple myeloma tumor model. Particulars: MOLP-8 tumor bearing mice. Set-up: species or system C.B-17 SCID female mice. The protocol: (§2) Example 2 was formulated in 30% 2-Hydroxypropyl-beta-cyclodextrin (HPBCD), pH 9 and dosed as intravenously (iv) in a volume of 5 ml/kg. 5×10^6 MOLP-8 tumor cells or 10^7 NCl-H929 tumor cells were injected subcutaneously in the right flank of C.B-17 SCID female mice in a volume of 0.1 mL. Tumor volumes (measured by caliper) were calculated using the formula: length (mm)×width (mm)^2[…]. For efficacy studies, mice were randomized based on tumor volumes and growth inhibition was assessed by comparison of the differences in tumor volume between control and treated groups. Dosing began when mean tumor size reached approximately 160 mm^3 for MOLP-8 and approximately 230 mm^3 for NCl-H929.

For the next test, the system named is NCl-H929 tumor. The experiment in a line: In vivo combination efficacy in NCI-H929 human multiple myeloma tumor model. Set-up: species or system C.B-17 SCID female mice. The note with it: NCl-H929 tumor bearing mice; for anti-tumor activity, agent alone: Example 2 30 mg/kg every other week or bortezomib 1 mg/kg weekly. The protocol: as §2
Another test concerns MV-4-11 tumor. Nature of the test: In vivo efficacy in MV-4-11 human acute myeloid leukemia tumor model. Set-up: species or system C.B-17 SCID female mice. The note with it: for mice remaining tumor free / tumor regression: MV-4-11 tumors. The protocol: as §2, with “a single intravenous” for “intravenously”, “(iv) administration” for “(iv)”, “10^6 MV-4-11” for “5×10^6 MOLP-8 tumor cells or 10^7 NCl-H929”, “mL. Tumor volumes (measured by caliper), animal body weight, and tumor conditions were recorded twice weekly for the duration of the study.” for “mL.”, “approximately” for “approximately 160 mm^3 for MOLP-8 and approximately”, “mm^3.” for “mm^3 for NCl-H929.”

Test [4] concerns NCl-H23 (non-small cell lung cancer) cells. The experiment in a line: Caspase Activity Assay (Caspase-Glo 3/7, 6 h treatment), NCI-H23. The test is classed as cell-based. The note with it: geometric mean of multiple measurements. The protocol:
as §1

A value given as a limit tells only on which side of the number the result lay.

In the case of `Cc1c2c(nn1C)CSCc1cc(n(C)n1)CSc1cc(c3ccccc3c1)OCCCc1c(C(=O)O)n(C)c3c-2c(Cl)ccc13` (atropisomer, axis not shown; (Ra)) [Example 2, (Ra)-(+)-17-chloro-5,13,14,22-tetramethyl-28-oxa-2,9-dithia-5,6,12,13,22-pentaazaheptacyclo[27.7.1.1^4,7.0^11,15.0^16,21.0^20,24.0^30,35]octatriaconta-1(37),4(38),6,11,14,16,18,20,23,29,31,33,35-tridecaene-23-carboxylic Acid], the 50% effective concentration (EC50) (as a rule, the concentration that produces a half-maximal response) in test [1] stood at 30 nM; in test [2], 43 nM; in test [3] it was 20 nM. The “anti-tumor activity (qualitative)” value in the test on MOLP-8 tumor (iv) is on record as “dose dependent anti-tumor activity”; in the test on MV-4-11 tumor (mice bearing subcutaneous MV-4-11 tumors, iv), “significant anti-tumor activity”. Also, the “tumor growth inhibition (TGI)” value was 52% in the test on MOLP-8 tumor (single iv administration at 10 mg/kg) and 92% in the test on MOLP-8 tumor (single iv administration at 30 mg/kg). For the same compound, the “mice with complete tumor regression” value in the test on MOLP-8 tumor (single iv administration at 60 or 100 mg/kg, measured 10 days after dosing) is recorded as 13 out of 14. Also, the “anti-tumor activity, agent alone” value in the test with NCl-H929 tumor is listed as “no significant anti-tumor activity”. Further, the “anti-tumor effect of combination” value in the test with NCl-H929 tumor (Example 2 every other week at 30 mg/kg in combination with weekly bortezomib at 1 mg/kg) is “tumor regression”. Also, the “mice remaining tumor free” value is 1 of 6 in the test on MV-4-11 tumor (once weekly iv 30 mg/kg, 16 days after initiation of therapy) and 4 of the 6 in the test with MV-4-11 tumor (single iv dose of 100 mg/kg, 16 days after therapy). Moreover, the tumor regression in the test with MV-4-11 tumor (once weekly iv 30 mg/kg, at Day 6) is reported as about 73%; in the test on MV-4-11 tumor (single iv dose of 100 mg/kg), 100%.

Consider `Cc1c2c(nn1C)CSCc1cc(n(C)n1)CSc1cc(c3ccccc3c1)OCCCc1c(C(=O)O)n(C)c3c-2c(Cl)ccc13` (single isomer, unassigned) [Example 3, (Sa)-(−)-17-chloro-5,13,14,22-tetramethyl-28-oxa-2,9-dithia-5,6,12,13,22-pentaazaheptacyclo[27.7.1.1^4,7.0^11,15.0^16,21.0^20,24.0^30,35]octatriaconta-1(37),4(38),6,11,14,16,18,20,23,29,31,33,35-tridecaene-23-carboxylic Acid], for which the EC50 in test [1] (Homo sapiens, MOLP-8, 6 h) is over 2300 nM; in test [2] (Homo sapiens, KMS-12-BM, 6 h), over 1030 nM; in test [3] (Homo sapiens, MV4-11, 6 h), over 1580 nM; in test [4] (Homo sapiens, NCI-H23, 6 h), over 10000 nM.

With `Cc1c2c(nn1C)CSCc1cc(n(C)n1)CSc1cc(c3ccccc3c1)OCCCc1c(C(=O)O)n(C)c3c-2c(Cl)ccc13` [Example 1, 17-chloro-5,13,14,22-tetramethyl-28-oxa-2,9-dithia-5,6,12,13,22-pentaazaheptacyclo[27.7.1.1^4,7.0^11,15.0^16,21.0^20,24.0^30,35]octatriaconta-1(37),4(38),6,11,14,16,18,20,23,29,31,33,35-tridecaene-23-carboxylic Acid], the EC50 amounted to 44 nM in test [1] (Homo sapiens, MOLP-8, 6 h); 48 nM in test [2] (Homo sapiens, KMS-12-BM, 6 h); 24 nM in test [3] (Homo sapiens, MV4-11, 6 h); 531 nM in test [4].

Regarding `CC(C)C[C@H](NC(=O)[C@H](Cc1ccccc1)NC(=O)c1cnccn1)B(O)O` [bortezomib, reference compound], the “anti-tumor activity, agent alone” value with NCl-H929 tumor is “no significant anti-tumor activity”.
